IC50, Emax and EC50 data for 51 compounds are collected here from patent US8236818B2, “Substituted imidazopyridine derivatives as melanocortin-4 receptor antagonists” (Santhera Pharmaceuticals (Schweiz) AG, priority 2007, dated 2012).

Bounds are passed on as bounds.

The target in experiment [1] is T1, melanocortin-4 receptor (Homo sapiens, UniProt P32245).
T1 construct: expressed in transfected cells; host or cells: HEK293 cells (membrane preparations)
The experiment can be described thus: Membrane binding assay (fluorescence polarization, competition with fluorescence labeled NDP-alpha-MSH). The following applies: read-out: hMC-4R binding assay IC50/μM. On the technique in general: In fluorescence polarisation assays a small probe gives low polarisation when free and higher when bound to something large.

In experiment [2] the target is T1, melanocortin-4 receptor. The experiment in a line: Functional assay (cAMP fluorescence polarization, membrane based, agonistic activity). The format is biochemical. The following applies: for Emax: 2 h, read-out: % activation functional assay; for EC50: agonistic activity, cAMP, HEK293 membrane preparations, read-out: hMC-4R functional assay EC50/μM.

T1 sequence (P32245 whole entry): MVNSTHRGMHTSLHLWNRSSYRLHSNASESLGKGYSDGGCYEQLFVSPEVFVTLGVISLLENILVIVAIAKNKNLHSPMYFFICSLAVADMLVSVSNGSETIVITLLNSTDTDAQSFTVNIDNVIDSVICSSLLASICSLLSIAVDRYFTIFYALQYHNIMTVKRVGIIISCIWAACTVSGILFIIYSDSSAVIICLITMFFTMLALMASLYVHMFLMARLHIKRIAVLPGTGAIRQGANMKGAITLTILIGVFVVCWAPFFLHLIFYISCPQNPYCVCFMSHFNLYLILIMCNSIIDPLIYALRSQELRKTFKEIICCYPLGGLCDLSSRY

`COc1cccc(-c2nc3ccc(C(=O)N(CCC(C)C)CCC(C)C)cn3c2CC(C)CN2CCCC2)c1` (stereo not drawn) [Example 54]: the IC50 at melanocortin-4 receptor [1] is 0.1 to 1 µM. For the same compound, the Emax at melanocortin-4 receptor [2] worked out at 0%.
The corresponding values for `CC(C)CCN(CCC(C)C)C(=O)c1ccc2nc(-c3ccccn3)c(CCCN3CCCC3)n2c1` [Example 55] are 0.1 to 1 µM and 0%.
In the case of `CC(C)CCN(CCC(C)C)C(=O)c1ccc2nc(-c3ccncc3)c(CCCN3CCCC3)n2c1` [Example 56], the IC50 on melanocortin-4 receptor [1] was less than 0.1 µM. The Emax on melanocortin-4 receptor [2] is 0%.
For `Cc1ccc(-c2nc3ccc(C(=O)N(CCC(C)C)CCC(C)C)cn3c2CCCN2CCCC2)nc1` [Example 57] the same measures were less than 0.1 µM and 0%.
For `Cc1ccc(-c2nc3ccc(C(=O)N(CCC(C)C)CCC(C)C)cn3c2CCCN(C)C)nc1` [Example 58] the same measures were more than 1 µM and 0%.
With `CC(C)CCN(CCC(C)C)C(=O)c1ccc2nc(-c3ccc(=O)[nH]c3)c(CCCN3CCCC3)n2c1` [Example 59], at melanocortin-4 receptor [1], the IC50 is less than 0.1 µM. Also, at melanocortin-4 receptor [2], the Emax is 0%.
The corresponding values for `COc1cccc(-c2nc3ccc(C(=O)N(CCC(C)C)CCC(C)C)cn3c2CCCN(C(C)C)C(C)C)c1` [Example 60] are 0.1 to 1 µM and 0%.
For `CC(C)CCN(CCC(C)C)C(=O)c1ccc2nc(-c3nccs3)c(CCCN(C)C)n2c1` [Example 61] the same measures were 0.1 to 1 µM and 0%.
For `CC(C)CCN(CCC(C)C)C(=O)c1ccc2nc(-c3cccc(=O)[nH]3)c(CCCN3CCCC3)n2c1` [Example 62] the same measures were 0.1 to 1 µM and 0%.
As for `CC(C)CCN(CCC(C)C)C(=O)c1ccc2nc(-c3ccc(C(=O)N(C)C)cc3)c(CCCN3CCCC3)n2c1` [Example 63], the IC50 at melanocortin-4 receptor [1] was 0.1 to 1 µM. The Emax at melanocortin-4 receptor [2] came to 0%.
`CNC(=O)c1ccc(-c2nc3ccc(C(=O)N(CCC(C)C)CCC(C)C)cn3c2CCCN2CCCC2)cc1` [Example 64]: the IC50 at melanocortin-4 receptor [1] is less than 0.1 µM. Besides, the Emax at melanocortin-4 receptor [2] was determined as 0%.
For `CC(C)CCN(CCC(C)C)C(=O)c1ccc2nc(-c3ccc(N)nc3)c(CCCN3CCCC3)n2c1` [Example 65] the same measures were less than 0.1 µM and 0%.
For `CC(C)CCN(CCC(C)C)C(=O)c1ccc2nc(-c3ccc(Cl)nc3)c(CCCN(C)C)n2c1` [Example 66] the same measures were 0.1 to 1 µM and 0%.
For `CC(C)CCN(CCC(C)C)C(=O)c1ccc2nc(-c3ccc(Cl)nc3)c(CCCN3CCCC3)n2c1` [Example 67] the same measures were less than 0.1 µM and 0%.
For `CC(C)CCN(CCC(C)C)C(=O)c1ccc2nc(-c3ccc(=O)[nH]c3)c(CCCN(C)C)n2c1` [Example 68], the IC50 at melanocortin-4 receptor [1] was in the range of 0.1 to 1 µM. For the same compound, the Emax at melanocortin-4 receptor [2] is 0%.
On to `CC(C)CCN(CCC(C)C)C(=O)c1ccc2nc(-c3ncco3)c(CCCN3CCCC3C)n2c1` (stereo not drawn) [Example 69], for which the IC50 at melanocortin-4 receptor [1] was less than 0.1 µM. Also, on melanocortin-4 receptor [2], the Emax turned out to be 0%.
With `CC(C)CCN(CCC(C)C)C(=O)c1ccc2nc(-c3ncco3)c(CCCN3CCC[C@@H]3CO)n2c1` [Example 70], the IC50 on melanocortin-4 receptor [1] was in the range of 0.1 to 1 µM. For the same compound, the Emax on melanocortin-4 receptor [2] is 0%.
For `CC(C)CCN(CCC(C)C)C(=O)c1ccc2nc(-c3ncco3)c(CCCN3CC[C@@H](O)C3)n2c1` [Example 71] the same measures were 0.1 to 1 µM and 0%.
The corresponding values for `CC(C)CCN(CCC(C)C)C(=O)c1ccc2nc(-c3ncco3)c(CCCN3CC[C@@H](F)C3)n2c1` [Example 72] are 0.1 to 1 µM and 2%.
For `CC(C)CCN(CCC(C)C)C(=O)c1ccc2nc(-c3ncco3)c(CCCN3CC(O)C3)n2c1` [Example 73] the same measures were 0.1 to 1 µM and -3%.
For `CC(C)CCN(CCC(C)C)C(=O)c1ccc2nc(-c3ncco3)c(CCCN3CCC3)n2c1` [Example 74], on melanocortin-4 receptor [1], the IC50 lay in the range of 0.1 to 1 µM. Moreover, the Emax at melanocortin-4 receptor [2] came out at 1%.
For `CC(C)CCN(CCC(C)C)C(=O)c1ccc2nc(-c3ncco3)c(CCCN(C)C(C)C)n2c1` [Example 75] the same measures were less than 0.1 µM and 1%.
The corresponding values for `CC(C)CCN(CCC(C)C)C(=O)c1ccc2nc(-c3ncco3)c(CCCN3CCC[C@H]3CO)n2c1` [Example 76] are 0.1 to 1 µM and 4%.
For `CC(C)CCN(CCC(C)C)C(=O)c1ccc2nc(-c3ncco3)c(CCCN3CCC(O)CC3)n2c1` [Example 77], the IC50 on melanocortin-4 receptor [1] is less than 0.1 µM. Moreover, at melanocortin-4 receptor [2], the Emax was determined as 4%.
For `CC(C)CCN(CCC(C)C)C(=O)c1ccc2nc(-c3ncco3)c(CCCN3CC[C@H](F)C3)n2c1` [Example 78] the same measures were less than 0.1 µM and 2%.
For `CC(C)CCN(CCC(C)C)C(=O)c1ccc2nc(-c3ccc(OCCO)nc3)c(CCCN3CCCC3)n2c1` [Example 79] the same measures were less than 0.1 µM and 11%.
As to `CC(C)CCN(CCC(C)C)C(=O)c1ccc2nc(-c3ncco3)c(CCCN3CC[C@H](O)C3)n2c1` [Example 80], on melanocortin-4 receptor [1], the IC50 was 0.1 to 1 µM. Also, on melanocortin-4 receptor [2], the Emax is -35% and the EC50 was in the range of 0.1 to 1 µM.
As to `CC(C)CCN(CCC(C)C)C(=O)c1ccc2nc(-c3ccc(=O)n(CCO)c3)c(CCCN3CCCC3)n2c1` [Example 81], on melanocortin-4 receptor [1], the IC50 is less than 0.1 µM. Also, the Emax at melanocortin-4 receptor [2] is -9%.
`COc1ccc(-c2nc3ccc(C(=O)N(CCC(C)C)CCC(C)C)cn3c2CCCN2CCCC2)cn1` [Example 82]: the IC50 at melanocortin-4 receptor [1] is less than 0.1 µM. For the same compound, at melanocortin-4 receptor [2], the Emax is -17% and the EC50 is less than 0.1 µM.
Turning to `COc1ccc(-c2nc3ccc(C(=O)N(CCC(C)C)CCC(C)C)cn3c2CCCN(C)C)cn1` [Example 83], on melanocortin-4 receptor [1], the IC50 is less than 0.1 µM. Besides, the Emax at melanocortin-4 receptor [2] was -1%.
Take `CC(C)CCN(CCC(C)C)C(=O)c1ccc2nc(-c3ncccn3)c(CCCN3CCCC3)n2c1` [Example 84]: the IC50 at melanocortin-4 receptor [1] was less than 0.1 µM. Further, at melanocortin-4 receptor [2], the Emax was -8%.
The corresponding values for `CC(C)CCN(CCC(C)C)C(=O)c1ccc2nc(-c3ncco3)c(CCCN3CCC[C@@H]3C)n2c1` [Example 85] are less than 0.1 µM and -2%.
The corresponding values for `CC(C)CCN(CCC(C)C)C(=O)c1ccc2nc(-c3ncco3)c(CCCN3CCC[C@H]3C)n2c1` [Example 86] are less than 0.1 µM and -11%.
With `CC(C)CCN(CCC(C)C)C(=O)c1ccc2nc(-c3cccnc3N)c(CCCN(C)C)n2c1` [Example 87], the IC50 on melanocortin-4 receptor [1] was more than 1 µM. Further, the Emax on melanocortin-4 receptor [2] worked out at 0%.
For `CC(C)CCN(CCC(C)C)C(=O)c1ccc2nc(-c3cc[nH]c(=O)c3)c(CCCN(C)C)n2c1` [Example 88], the IC50 on melanocortin-4 receptor [1] was 0.1 to 1 µM. Moreover, the Emax on melanocortin-4 receptor [2] is -2%.
`CC(C)CCN(CCC(C)C)C(=O)c1ccc2nc(-c3cc[nH]c(=O)c3)c(CCCN3CCCC3)n2c1` [Example 89]: at melanocortin-4 receptor [1], the IC50 was less than 0.1 µM. Further, at melanocortin-4 receptor [2], the Emax is -25% and the EC50 was less than 0.1 µM.
Turning to `CC(C)CCN(CCC(C)C)C(=O)c1ccc2nc(-c3cccnc3N)c(CCCN3CCCC3)n2c1` [Example 90], at melanocortin-4 receptor [1], the IC50 lay in the range of 0.1 to 1 µM. For the same compound, at melanocortin-4 receptor [2], the Emax was -41% and the EC50 is more than 1 µM.
The corresponding values for `CC(C)CCN(CCC(C)C)C(=O)c1ccc2nc(-c3ccc(=O)n(CCCO)c3)c(CCCN3CCCC3)n2c1` [Example 91] are 0.1 to 1 µM, -29% and 0.1 to 1 µM.
The corresponding values for `CC(C)CCN(CCC(C)C)C(=O)c1ccc2nc(-c3ccc(OCCCO)nc3)c(CCCN3CCCC3)n2c1` [Example 92] are 0.1 to 1 µM, -31% and less than 0.1 µM.
Turning to `CC(C)CCN(CCC(C)C)C(=O)c1ccc2nc(-c3ccc(=O)n(CC(C)O)c3)c(CCCN3CCCC3)n2c1` (stereo not drawn) [Example 93], the IC50 at melanocortin-4 receptor [1] is 0.1 to 1 µM. Further, at melanocortin-4 receptor [2], the Emax came to 0%.
The corresponding values for `CC(C)CCN(CCC(C)C)C(=O)c1ccc2nc(-c3ccc(OCC(C)O)nc3)c(CCCN3CCCC3)n2c1` (stereo not drawn) [Example 94] are more than 1 µM and -13%.
The corresponding values for `COCCn1cc(-c2nc3ccc(C(=O)N(CCC(C)C)CCC(C)C)cn3c2CCCN2CCCC2)ccc1=O` [Example 95] are less than 0.1 µM and 0%.
For `COCCOc1ccc(-c2nc3ccc(C(=O)N(CCC(C)C)CCC(C)C)cn3c2CCCN2CCCC2)cn1` [Example 96] the same measures were less than 0.1 µM and 0%.
Take `CC(=O)OCCOc1ccc(-c2nc3ccc(C(=O)N(CCC(C)C)CCC(C)C)cn3c2CCCN2CCCC2)cn1` [Example 97]: the IC50 on melanocortin-4 receptor [1] is less than 0.1 µM. Further, at melanocortin-4 receptor [2], the Emax was 1%.
The corresponding values for `CC(C)CCN(CCC(C)C)C(=O)c1ccc2nc(C3CCOCC3)c(CCCN3CCCC3)n2c1` [Example 98] are 0.1 to 1 µM and -8%.
The corresponding values for `CC(=O)OCCn1cc(-c2nc3ccc(C(=O)N(CCC(C)C)CCC(C)C)cn3c2CCCN2CCCC2)ccc1=O` [Example 99] are less than 0.1 µM and 4%.
The corresponding values for `CC(C)CCN(CCC(C)C)C(=O)c1ccc2nc(-c3ccc(=O)[nH]c3)c(CCCN3CCCC3C)n2c1` (stereo not drawn) [Example 100] are less than 0.1 µM and -22%.
Consider `CC(=O)OCCn1cc(-c2nc3ccc(C(=O)N(CCC(C)C)CCC(C)C)cn3c2CCCN2CCCC2C)ccc1=O` (stereo not drawn) [Example 101], for which the IC50 on melanocortin-4 receptor [1] is less than 0.1 µM. In addition, on melanocortin-4 receptor [2], the Emax is -25%.
For `CC(=O)OCCOc1ccc(-c2nc3ccc(C(=O)N(CCC(C)C)CCC(C)C)cn3c2CCCN2CCCC2C)cn1` (stereo not drawn) [Example 102] the same measures were less than 0.1 µM and -15%.
The corresponding values for `CC(C)CCN(CCC(C)C)C(=O)c1ccc2nc(-c3ccc(=O)n(CCO)c3)c(CCCN3CCCC3C)n2c1` (stereo not drawn) [Example 103] are less than 0.1 µM and -20%.
For `CC(C)CCN(CCC(C)C)C(=O)c1ccc2nc(-c3ccc(OCCO)nc3)c(CCCN3CCCC3C)n2c1` (stereo not drawn) [Example 104] the same measures were less than 0.1 µM and -15%.
